Test results published in paper PMC8397297 (ACS Chemical Neuroscience, 2021).
“Also recorded” adds a separate entry of the source.

Tests used:
STZ-treated mice = experiment: diabetic STZ-induced peripheral neuropathy, tactile allodynia (von Frey test); assay type: in vivo, mouse; conditions: 21 days after STZ, i.p., doses 10 and 30 mg/kg
Description: (§1) Before the in vivo tests, the test compounds were suspended in 1% Tween 80 (Baxter, Poland). The compounds were then administered intraperitoneally. […] The test compounds were administered only once daily on days 1 and 7 of oxaliplatin- or paclitaxel-induced neuropathy. In STZ-treated mice, test compounds were administered 21 days after STZ injection. Control mice used in oxaliplatin and paclitaxel NP models were injected with an appropriate amount of vehicle (0.9% saline). Oxaliplatin was purchased from Activate Scientific GmbH (Germany). Paclitaxel and STZ were purchased from Sigma-Aldrich (Poland).
Doses of both paclitaxel and STZ used for the induction of neuropathy were selected based on our previous research.[66],[67] To induce neuropathy, paclitaxel was used at a dose of 18 mg/kg. […] Blood glucose level was measured 1 day before (referred to as “day 0”) and repeatedly 1, 2, and 3 weeks after STZ injection using a blood glucose monitoring system (Accu-Chek Active, Roche, France). […]
The ability of the test compounds to attenuate tactile allodynia caused by oxaliplatin, paclitaxel, and STZ was assessed using the von Frey test. For this purpose, 3 h after oxaliplatin or paclitaxel and 21 days after STZ injection, the predrug paw withdrawal threshold was measured for each mouse. […]

paclitaxel-treated mice = experiment: paclitaxel-induced peripheral neuropathy, tactile allodynia (von Frey test); assay type: in vivo, mouse
Description: as §1
Doses of both paclitaxel and STZ used for the induction of neuropathy were selected based on our previous research.[66],[67] To induce neuropathy, paclitaxel was used at a dose of 18 mg/kg. It was prepared by dissolving in ethanol (100% (v/v); Polskie Odczynniki Chemiczne, Gliwice, Poland) at 10% of the final desired volume and vortexed for 2 min. An equal volume of Cremophor EL (10% of the final volume) was then added, and the mixture was vortexed for the next 10 min. Prior to injection, ice-cold physiological saline (80% of the final volume) was added to make up a final volume and the solution was maintained on ice during dosing.[66] To induce type I diabetes, mice were intraperitoneally injected with STZ (a single injection of STZ, 200 mg/kg) dissolved in 0.1 N citrate buffer. Age-matched control mice received an equal volume of citrate buffer. Blood glucose level was measured 1 day before (referred to as “day 0”) and repeatedly 1, 2, and 3 weeks after STZ injection using a blood glucose monitoring system (Accu-Chek Active, Roche, France). Blood samples for measurement of glucose concentration were obtained from the tail vein of the mice. The animals were considered as diabetic when their blood glucose concentration exceeded 300 mg/dL,[68] and only these mice (diabetic mice) were used in subsequent pain tests.[67]
The ability of the test compounds to attenuate tactile allodynia caused by oxaliplatin, paclitaxel, and STZ was assessed using the von Frey test. For this purpose, 3 h after oxaliplatin or paclitaxel and 21 days after STZ injection, the predrug paw withdrawal threshold was measured for each mouse. Then, the test compounds were administered, and 1 h later, the postdrug paw withdrawal threshold was collected for each animal. This part of the experiment aimed to establish the effect of treatment on early phase (acute) pain hypersensitivity induced by cytotoxic drugs. Additionally, in the oxaliplatin model and the paclitaxel model, to assess the effect of test compounds on late phase tactile allodynia, 7 days later, measurements of the predrug and postdrug paw withdrawal thresholds were made in a similar manner to the measurements performed during early phase neuropathy. At this stage of the experiment, there was no additional oxaliplatin/paclitaxel administration.
An electronic von Frey unit (Bioseb, France) was used to assess the mechanical nociceptive threshold (tactile allodynia) in mice. This device has a single flexible filament that applies increasing force (from 0 to 10 g) against the plantar surface of the hind paw of each mouse. In the von Frey test, the paw withdrawal response of the animals automatically turns off the stimulus, and the mechanical pressure that evokes this response is recorded. On the day of the experiment, the mice were placed individually in test compartments with a wire mesh bottom and left there for 1 h of habituation. Subsequently, to obtain baseline values, each mouse was tested 3 times alternately in each hind paw. Then, the test compounds were administered, and 1 h later, 3 additional measurements were taken and averaged to obtain the mean postdrug values for each mouse.[69]

[1] = HepG2 hepatoma cell-based hepatotoxicity assay (MTS); conditions: human, HepG2 hepatoma cells; 25 μM, 72 h, control 1% DMSO in culture media; read-out: HepG2 cell viability compared to the control
Description: To investigate the safety of compounds 2RS,4RS-39c, 50a, and 56a, a HepG2 hepatoma cell-based hepatotoxicity assay was used. Compounds were tested at six concentrations (0.1–100 μM).
Hepatotoxicity and cytotoxicity were estimated according to previously described protocols[62] using the hepatoma HepG2 (ATCC HB-8065) and human embryonic kidney HEK-293 (ATCC CRL1573) cell lines, respectively. In brief, cells were seeded in 96-well plates at a density of 0.7 × 10^4 and cultured at 37 °C in an atmosphere containing 5% CO2. Next, the compounds were added and investigated in quadruplicate at concentrations ranging from 0.1 to 100 μM for 72 h. The antiproliferative drug DX was used as the reference. The CellTiter 96 AQueous nonradioactive cell proliferation assay (MTS) purchased from Promega (Madison, WI, USA) was used for the determination of cell viability. The absorbance at 492 nm was measured using an EnSpire microplate reader (PerkinElmer, Waltham, MA, USA).

[2] = day 7 after paclitaxel injection, 30 mg/kg i.p., 30 mg/kg
[3] = day 7 after paclitaxel injection, lower dose (10 mg/kg) i.p.
[4] = day of paclitaxel administration, 10 and 30 mg/kg i.p.

| SMILES | effect on mechanical nociceptive threshold (tactile allodynia), von Frey test (STZ-treated mice) | effect on mechanical nociceptive threshold, von Frey test (paclitaxel-treated mice; [2]) | effect on mechanical nociceptive threshold, von Frey test (paclitaxel-treated mice; [3]) | effect on mechanical nociceptive threshold, von Frey test (paclitaxel-treated mice; [4]) | viability at 72 h, 25 µM [1] [%] |
| --- | --- | --- | --- | --- | --- |
| CN(CCON=C(c1ccccc1)c1ccccc1)C(CCN)C(=O)NCc1ccccc1Cl (stereo not drawn) [Compound 50a, 4-Amino-N-[(2-chlorophenyl)methyl]-2-[(2-{[(diphenylmethylidene)amino]oxy}ethyl)(methyl)amino]butanamide] | effective only at the dose of 30 mg/kg | elevated mechanical nociceptive threshold; also recorded: able to reduce tactile allodynia | not effective | neither 50a nor 56a at doses 10 and 30 mg/kg was able to elevate the mechanical nociceptive threshold |  |
| CN(CCC=C1c2ccccc2CCc2ccccc21)C(CO)C(=O)NCc1ccccc1 (stereo not drawn) [Compound 56a, N-Benzyl-2-((3-(10,11-dihydro-5H-dibenzo[a,d][7]annulen-5-ylidene)propyl)(methyl)amino)-3-hydroxypropanamide] | effective only at the dose of 30 mg/kg | elevated mechanical nociceptive threshold; also recorded: able to reduce tactile allodynia | not effective | neither 50a nor 56a at doses 10 and 30 mg/kg was able to elevate the mechanical nociceptive threshold | 100 |
